Assay results taken from patent US4119719A, “Piperazine compounds” (Parcor, priority 1975, dated 1978).
Counter-ions that a name gives are not always drawn.

Tests used:
[1] = LD50 /24 hours, intravenous route in mice (method of Miller and Tainter); conditions: mouse, in vivo, read-out: LD50 /24 hours/kg of body weight
Experimental: 1, 53 mg for derivative no. 2, 89 mg for derivative no. 3, 57 mg for derivative no. 4, 41 mg for derivative no. 5, 62 mg for derivative no. 6, 66 mg for derivative no. 7, 74 mg for derivative no. 8 and 100 mg for derivative no. 9.

[2] = tested on: stretching movements induced by acetic acid; test: Analgesic activity: acetic acid stretching movements (method of Koster, Anderson and De Beer); assay type: in vivo; conditions: mice, 50 mg/kg oral thirty minutes before acetic acid; reduction in stretching movements in next thirty minutes
Experimental: The intraperitoneal injection of a dilute solution of acetic acid causes, in mice, repeated characteristic stretching movements under the effect of the pain. The oral administration of a dosage of 50 mg/kg of the test derivative, thirty minutes before the injection of acetic acid, reduces the number of movements in the next thirty minutes. In this way, the average number of stretching movements and the percentage analgesia obtained, corresponding to the percentage reduction in the number of stretching movements, compared with the controls, are determined.

dyslipaemia = test: Hypocholesterolaemic activity: rabbits kept on a hypercholesterolaemic diet, biological tests of dyslipaemia; assay type: in vivo; design: total cholesterol (T) / esterified cholesterol (E) / free cholesterol (L) / Burstein test with dextrane (B) / serum lipids (LS): unit not given here; conditions: 10 mg/kg daily oral
Experimental: (§1) (b) This study was carried out on rabbits kept on a hypercholesterolaemic diet. The rabbits are divided into batches of 40 animals; the control batch (A) receives no treatment, whereas the treated batches are given the medicines according to the invention. Thus, derivative no. 1 is administered to the animals in batch B, derivative no. 5 to those in batch C and derivative no. 7 to those in batch D, by oral route, daily, in dosage of 10 mg/kg. On the first day of the experiments and then every 15 days, for a period of 75 days, biological tests are carried out on all the animals, whereby the various elements which indicate dyslipaemia are determined: total cholesterol (T), esterified cholesterol (E), free cholesterol (L), esterification ratio (E/T), Kunkel phenol test (K1), Kunkel phenol test (K2), Burstein test with dextrane (B) and serum lipids (LS).
(§2) The results, representing the average values determined with each batch, are assembled in the following Tables: […]

livers and aortas = test: Rabbits kept on a hypercholesterolaemic diet: macroscopic examination of livers and aortas; assay type: in vivo; conditions: 10 mg/kg daily oral, end of experiment; for aortic atheromatous lesions: marked in intensity from 0 to 4; for fatty infiltrations of the liver: marked in size from 0 to 3
Experimental: as §1
At the end of the experiment, all the animals are killed and autopsies are performed on them; macroscopic examinations of their livers and aortas are then carried out, and the fatty infiltrations of the liver are marked, in size, from 0 to 3 and the aortic atheromatous lesions are marked, in intensity, from 0 to 4.
as §2

[3] = tested on: cholesterol level in the plasma; test: Hypocholesterolaemic activity: test using propyl thiouracil; assay type: in vivo; conditions: rats, 10 mg/kg orally, 11th day
From the text: (a) Test using propyl thiouracil ([…] and Coll., J. Pharmacol. Exper. Therap., 1963, 142, 132-136). […] On the 11th day of the experiment, blood samples are taken and the free cholesterol and total cholesterol are estimated.

ovalbumin oedema = test: Anti-inflammatory activity: generalised ovalbumin oedema; assay type: in vivo; conditions: rat, 50 mg oral one hour before and at injection of ovalbumin
Experimental: The rat is given a simultaneous intraperitoneal injection of 1 ml of ovalbumin and 0.5 ml of a 1% aqueous solution of Evans blue. Moreover, 50 mg of the test derivative are administered orally to the animals of the test batches one hour before and at the same time as the injection of ovalbumin. The intensity of the phenomenon thus induced is given a mark from 1 to 5, depending on the progression of the inflammatory syndrome. Thus, the average oedematous intensity and the percentage reduction in the oedematous reaction, compared with the control, are determined.

[4] = tested on: carrageenin-induced oedema; test: Anti-inflammatory activity: localised carrageenin-induced oedema; assay type: in vivo; conditions: rat, 10 mg/kg oral (four administrations)
Experimental: A 1% carrageenin solution (0.1 ml) is injected into the metatarsal flexors of the right hind paw of the rat at time 0. The animals in the treated batch are also given by oral route, 10 mg/kg of the test derivative, one hour before, then at the same time as the injection of the phlogogenic agent, then one hour and 21/2 hours afterwards, respectively. The measurements taken with a Roch micrometer at time 0, then 1 hour, 2 hours, 3 hours and 5 hours after administration of the carrageenin make it possible to determine, as a function of time, the percentage anti-inflammatory activity compared with the control batch.

For `Cc1ccc(N2CCN(CCCNC3CCCCC3)CC2)cc1` [Derivative no. 1, 1-(3-cyclohexylamino-propyl)-4-p-tolyl-piperazine], the LD50 at 24 h [1] was 25 mg/kg, the “average percentage of analgesia” value [2] was 65% and the “Burstein test with dextrane (B)” value (dyslipaemia; 1st Day) was 11.1. For the same compound, the “Kunkel phenol test (K1)” value (dyslipaemia; 1st Day) was 8.2, the “Kunkel phenol test (K2)” value (dyslipaemia; 1st Day) was 13.7 and the “esterification ratio (E/T)” value (dyslipaemia; 1st Day) was 0.50. The “esterified cholesterol (E)” value (dyslipaemia; 1st Day) was 0.28, the “free cholesterol (L)” value (dyslipaemia; 1st Day) was 0.27 and the “serum lipids (LS)” value (dyslipaemia; 1st Day) was 1.95. For the same compound, the “total cholesterol (T)” value (dyslipaemia; 1st Day) was 0.55, the “Burstein test with dextrane (B)” value (dyslipaemia; 30th Day) was 21.2 and the “Kunkel phenol test (K1)” value (dyslipaemia; 30th Day) was 18.6. For the same compound, the “Kunkel phenol test (K2)” value (dyslipaemia; 30th Day) was 25.4, the “esterification ratio (E/T)” value (dyslipaemia; 30th Day) was 0.62 and the “esterified cholesterol (E)” value (dyslipaemia; 30th Day) was 0.92. The “free cholesterol (L)” value (dyslipaemia; 30th Day) was 0.55, the “serum lipids (LS)” value (dyslipaemia; 30th Day) was 2.91 and the “total cholesterol (T)” value (dyslipaemia; 30th Day) was 1.47. For the same compound, the “Burstein test with dextrane (B)” value (dyslipaemia; 75th Day) was 35.8, the “Kunkel phenol test (K1)” value (dyslipaemia; 75th Day) was 33.1 and the “Kunkel phenol test (K2)” value (dyslipaemia; 75th Day) was 41.9. For the same compound, the “esterification ratio (E/T)” value (dyslipaemia; 75th Day) was 0.66, the “esterified cholesterol (E)” value (dyslipaemia; 75th Day) was 1.80 and the “free cholesterol (L)” value (dyslipaemia; 75th Day) was 1.12. For the same compound, the “serum lipids (LS)” value (dyslipaemia; 75th Day) was 4.03, the “total cholesterol (T)” value (dyslipaemia; 75th Day) was 2.92 and the aortic atheromatous lesions (livers and aortas) was 1.4. The “fatty infiltrations of the liver” value (livers and aortas) was 0.9.
In the case of `Clc1ccc(N2CCN(CCCN3CCOCC3)CC2)cc1` [Derivative no. 9, dimaleate], the LD50 at 24 h [1] is reported as 100 mg/kg, the Free cholesterol [3] is reported as 0.13 g/L and the Total cholesterol [3] is reported as 0.57 g/L.
With `CCCNCCCN1CCN(c2ccc(F)cc2)CC1` [Derivative no. 3, 1-(p-fluorophenyl)-4-(3-N-propylamino)propyl piperazine trihydrochloride] the LD50 at 24 h [1] was 89 mg/kg, the “Percentage reduction in oedematous reaction” value (“Percentage reduction” for short) (ovalbumin oedema; 2nd hour) was 51% and the “Percentage reduction” value (ovalbumin oedema; 3rd hour) was 62%. The Percentage anti-inflammatory activity ([4]; after 1 hr) was 31%, the Percentage anti-inflammatory activity ([4]; after 2 hrs) was 44% and the Percentage anti-inflammatory activity ([4]; after 3 hrs) was 47%. The Percentage anti-inflammatory activity ([4]; after 5 hrs) was 49%.
For `COc1ccc(N2CCN(CCCN3CCCC3)CC2)cc1.Cl.Cl.Cl` [Derivative no. 8, 1-(p-methoxyphenyl)-4-(3-pyrrolidino-propyl)-piperazine trihydrochloride], the LD50 at 24 h [1] was 74 mg/kg, the “Percentage reduction” value (ovalbumin oedema; 2nd hour) was 55% and the “Percentage reduction” value (ovalbumin oedema; 3rd hour) was 68%. It also gave a Percentage anti-inflammatory activity ([4]; after 1 hr) of 37%, a Percentage anti-inflammatory activity ([4]; after 2 hrs) of 48% and a Percentage anti-inflammatory activity ([4]; after 3 hrs) of 50%. For the same compound, the Percentage anti-inflammatory activity ([4]; after 5 hrs) was 54%.
With `Clc1ccccc1N1CCN(CCCNC2CCCCC2)CC1` [Derivative no. 6, 4-(o-chlorophenyl)-1-(3-cyclohexylamino)-propylpiperazine trihydrochloride] the LD50 at 24 h [1] was 62 mg/kg, the “average percentage of analgesia” value [2] was 61% and the Free cholesterol [3] was 0.15 g/L. The Total cholesterol [3] was 0.53 g/L.
For `CCCNCCCN1CCN(c2cccc(C(F)(F)F)c2)CC1` [Derivative no. 4, 1-(3-n-propylaminopropyl)-4-(m-trifluoro-methylphenyl)-piperazine dihydrochloride], the LD50 at 24 h [1] was 57 mg/kg, the “Percentage reduction” value (ovalbumin oedema; 2nd hour) was 49% and the “Percentage reduction” value (ovalbumin oedema; 3rd hour) was 61%. The Percentage anti-inflammatory activity ([4]; after 1 hr) was 39%, the Percentage anti-inflammatory activity ([4]; after 2 hrs) was 51% and the Percentage anti-inflammatory activity ([4]; after 3 hrs) was 53%. It also gave a Percentage anti-inflammatory activity ([4]; after 5 hrs) of 58%.
In the case of `Cl.Cl.Cl.Clc1ccc(N2CCN(CCCNC3CCCCC3)CC2)cc1` [Derivative no. 5, 1-(3-cyclohexylamino-propyl)-4-(p-chlorophenyl)-piperazine trihydrochloride], the LD50 at 24 h [1] is reported as 41 mg/kg, the “Burstein test with dextrane (B)” value (dyslipaemia; 1st Day) is reported as 10.9 and the “Kunkel phenol test (K1)” value (dyslipaemia; 1st Day) is reported as 8.1. The “Kunkel phenol test (K2)” value (dyslipaemia; 1st Day) was 12.6, the “esterification ratio (E/T)” value (dyslipaemia; 1st Day) was 0.49 and the “esterified cholesterol (E)” value (dyslipaemia; 1st Day) was 0.28. For the same compound, the “free cholesterol (L)” value (dyslipaemia; 1st Day) was 0.29, the “serum lipids (LS)” value (dyslipaemia; 1st Day) was 2.1 and the “total cholesterol (T)” value (dyslipaemia; 1st Day) was 0.57. For the same compound, the “Burstein test with dextrane (B)” value (dyslipaemia; 30th Day) was 21.1, the “Kunkel phenol test (K1)” value (dyslipaemia; 30th Day) was 18.8 and the “Kunkel phenol test (K2)” value (dyslipaemia; 30th Day) was 25.0. The “esterification ratio (E/T)” value (dyslipaemia; 30th Day) was 0.62, the “esterified cholesterol (E)” value (dyslipaemia; 30th Day) was 0.91 and the “free cholesterol (L)” value (dyslipaemia; 30th Day) was 0.54. The “serum lipids (LS)” value (dyslipaemia; 30th Day) was 2.85, the “total cholesterol (T)” value (dyslipaemia; 30th Day) was 1.45 and the “Burstein test with dextrane (B)” value (dyslipaemia; 75th Day) was 35.9. For the same compound, the “Kunkel phenol test (K1)” value (dyslipaemia; 75th Day) was 32.8, the “Kunkel phenol test (K2)” value (dyslipaemia; 75th Day) was 41.8 and the “esterification ratio (E/T)” value (dyslipaemia; 75th Day) was 0.60. The “esterified cholesterol (E)” value (dyslipaemia; 75th Day) was 1.78, the “free cholesterol (L)” value (dyslipaemia; 75th Day) was 1.14 and the “serum lipids (LS)” value (dyslipaemia; 75th Day) was 4.1. The “total cholesterol (T)” value (dyslipaemia; 75th Day) was 2.92, the aortic atheromatous lesions (livers and aortas) was 1.2 and the “fatty infiltrations of the liver” value (livers and aortas) was 1.0. The Free cholesterol [3] was 0.16 g/L and the Total cholesterol [3] was 0.55 g/L.
In the case of `Clc1ccc(N2CCN(CCCN3CCCCC3)CC2)cc1` [Derivative no. 2, 4-p-chlorophenyl-1-(3-piperidinopropyl)-piperazine], the LD50 at 24 h [1] is reported as 53 mg/kg, the “average percentage of analgesia” value [2] is reported as 72% and the Free cholesterol [3] is reported as 0.13 g/L. It also gave a Total cholesterol [3] of 0.62 g/L.
